The CC50 is the concentration at which the toxic effect on the cells reaches its halfway point.

Calls of active or inactive are those of the source. The calls are words filed in the database; no cut-off is given here.

This is an account of results in ChEMBL document CHEMBL4340548, “Pyridone-containing phenalenone-based photosensitizer working both under light and in the dark for photodynamic therapy” (Bioorg Med Chem, 2019).

A short description of series [1]: Induction of singlet oxygen generation in acetonitrile irradiated with blue light assessed as singlet oxygen quantum yield at 30 uM using ABDA by UV spectrophotometry. In kind it is functional.
For series [2], the system named is HeLa. As to the kind of experiment: Photodynamic cytotoxicity in human HeLa cells assessed as reduction in cell viability incubated in blue light for 5 mins every 1.5 hrs for 8 repeated cycles further incubation under dark for 24 hrs by MTT assay. In kind it is functional. The following applies: light or radiation study. (Tetrazolium assays rely on reduction of a dye to a coloured formazan, in cell work by metabolically active cells.)

Series [3] is described as follows: Induction of singlet oxygen generation in water irradiated with blue light assessed as singlet oxygen quantum yield at 30 uM using ABDA by UV spectrophotometry. The series is classed as functional.
A short description of series [4]: Photostability in acetonitrile assessed as decrease in absorbance of pyridone moiety at 50 uM irradiated with light for 2.5 hrs by UV spectrophotometry.
Series [5] relates to HeLa. Nature of the series: Induction of ROS generation in human HeLa cells irradiated with blue light at 1 uM incubated for 30 mins by DCFH-DA dye-based confocal microscopic analysis. The series is classed as functional, cell-based.
Series [6] deals with HeLa. Nature of the series: Induction of ROS generation in human HeLa cells under dark condition at 1 uM incubated for 30 mins at 37 degC by DCFH-DA dye-based confocal microscopic analysis. The series is classed as cell-based. The note with it: 0.5 h.
Series [7] relates to HeLa. As to the kind of experiment: Induction of ROS generation in human HeLa cells irradiated with blue light at 1 uM incubated for 30 mins in presence of sodium azide by DCFH-DA dye-based confocal microscopic analysis. In kind it is functional, cell-based.
Series [8] deals with HeLa. As to the kind of experiment: Induction of apoptosis in human HeLa cells at 1 uM incubated for 3 hrs irradiated with blue light by DAPI-Annexin V-PE staining based confocal microscopic analysis. The series is classed as functional, cell-based.
Series [9] relates to HeLa. Nature of the series: Induction of apoptosis in human HeLa cells at 1 uM incubated for 3 hrs irradiated with blue light in presence of sodium azide by DAPI-Annexin V-PE staining based confocal microscopic analysis. The series is classed as functional, cell-based.
A short description of series [10]: Photostability in acetonitrile assessed as PPN-EPO formation at 50 uM irradiated with light for 2.5 hrs by UV spectrophotometry.
Series [11] can be described thus: Photostability in acetonitrile assessed as singlet oxygen formation by measuring pyridone moiety band at 50 uM at 37 degC irradiated with light for 2.5 hrs by UV spectrophotometry.
Series [12] in a line: Induction of singlet oxygen generation at 50 uM under irradiation incubated for 15 mins by 1H-NMR spectroscopy. The series is classed as functional.
A short description of series [13]: Induction of singlet oxygen generation at 50 uM under blue light irradiation at 60 degC by ABDA based singlet oxygen trap assay. In kind it is functional.
The nature of series [14]: Induction of singlet oxygen generation at 50 uM under blue light irradiation at 25 degC by ABDA based singlet oxygen trap assay. In kind it is functional.
A short description of series [15]: Induction of singlet oxygen generation at 50 uM under dark condition at 37 degC by ABDA based singlet oxygen trap assay. The series is classed as functional.
Series [16] in a line: Induction of singlet oxygen generation at 50 uM under irradiation at 20 degC for 5 mins and dark at 37 degC fro 30 mins for several cycles by ABDA based singlet oxygen trap assay. In kind it is functional.

Consider `O=C1C(c2ccc(CN3C(=O)C4C=CC3OO4)cc2)=Cc2cccc3cccc1c23` (centres undefined), for which the Activity in series [1] stood at 0.71; in [3] it was 0.16. In the series with HeLa [2], the CC50 came to 71.5 nM.

On to `O=C1C(c2ccc(Cn3ccccc3=O)cc2)=Cc2cccc3cccc1c23`, for which the Activity is 0.64 in series [1], “Non-Toxic” with HeLa [6] and 0.12 in series [3]. Besides, the Stability entry in series [4] is “Unstable”; in series [10] it was “Unstable”; in series [11], “Stable”. The outcome (in the series with HeLa [5]; in the series on HeLa [7]; in the series with HeLa [8]; in series [12]; in series [13]; in series [15]) was Active. For the same molecule, the outcome in series [16] was Active. The result (in the series on HeLa [9]; in series [14]) was inactive. Also, the CC50 in the series with HeLa [2] came to 26.5 nM.
